Assay results published in patent US8629293B2, “Process for the preparation of FE(III) chelates of N,N′-DI(2-hydroxybenzyl)-ethylenediamine-N,N′-diacetic acid and its derivatives” (Przedsiebiorstwo Produkcyjno-Consultingowe Adob SP. Z O.O. …, priority 2009, dated 2014).

Legend:
[1] = test system: 10-year old nectarine trees, cultivar "Zephyr" grafted on the GF677 root stock; test: Field test, testing field No. 1: SPAD index; assay type: in vivo
Method: (§1) The comparison included two chelate agents for supplementing iron deficiencies: HBED/Fe^3+ as well as the commercially available, highly purified EDDHA/Fe^3+. The studies were carried out on two fields with the soil having an alkaline pH as well as a high concentration of calcium ions. The chelates were applied directly to the soil by means of a dripper immersed in the soil.
10-year old nectarine trees, cultivar “Zephyr” grafted on the GF677 root stock
The chelates were applied at the following concentrations: • EDDHA/Fe^3+: high concentration (0.9 g of the chelated Fe/tree) • HBED/Fe^3+: low concentration (0.45 g of the chelated Fe/tree) • HBED/Fe^3+: high concentration (0.9 g of the chelated Fe/tree) • control trial: without Fe
The chelate solutions of various concentrations were applied in three portions (50%, 30%, and finally 20% of the whole dose, respectively) directly to the ground below the dripper.
The SPAD index was measured approximately every two weeks: on day 14, 29, 44, 61, 88 and 99 after application of the chelates.

[2] = test system: 7-year old trees of flat peach (Prunus persica var. platycarpa) grafted on the GF677 root stock with visible symptoms of chlorosis; test: Field test, testing field No. 2: SPAD index of leaves; assay type: in vivo; settings: for ΔSPAD index of leaves: 0.9 g of the chelated Fe/tree
Method: as §1
7-year old trees of flat peach (Prunus persica var. platycarpa) grafted on the GF677 root stock with visible symptoms of chlorosis
The chelates were applied at the following concentrations: • EDDHA/Fe^3+: high concentration (0.9 g of the chelated Fe/tree) • HBED/Fe^3+: high concentration (0.9 g of the chelated Fe/tree) • control trial: without Fe
The chelate solutions were dosed directly to the ground below the dripper. In this case, the whole dose of the chelates were applied in one portion. The symptoms of chlorosis were visible at the beginning of the experiment.
The samples for determination of the SPAD index of leaves were taken approximately every two weeks (on day 0, 20, 40 and 63 after application of the chelates).

[3] = 0.9 g of the chelated Fe/tree, day 14 after application
[4] = 0.9 g of the chelated Fe/tree, day 29 after application
[5] = 0.9 g of the chelated Fe/tree, day 44 after application
[6] = 0.9 g of the chelated Fe/tree, day 61 after application
[7] = 0.9 g of the chelated Fe/tree, day 88 after application
[8] = 0.9 g of the chelated Fe/tree, day 99 after application
[9] = 0.45 g of the chelated Fe/tree, day 14 after application
[10] = 0.45 g of the chelated Fe/tree, day 29 after application
[11] = 0.45 g of the chelated Fe/tree, day 44 after application
[12] = 0.45 g of the chelated Fe/tree, day 61 after application
[13] = 0.45 g of the chelated Fe/tree, day 88 after application
[14] = 0.45 g of the chelated Fe/tree, day 99 after application

Compound	The SPAD index of the fructifying branches [1, 3]	The SPAD index of the non-fructifying branches [1, 3]	The SPAD index of the fructifying branches [1, 4]	The SPAD index of the non-fructifying branches [1, 4]	The SPAD index of the fructifying branches [1, 5]	The SPAD index of the non-fructifying branches [1, 5]	The SPAD index of the fructifying branches [1, 6]	The SPAD index of the non-fructifying branches [1, 6]	The SPAD index of the fructifying branches [1, 7]	The SPAD index of the non-fructifying branches [1, 7]	The SPAD index of the fructifying branches [1, 8]	The SPAD index of the non-fructifying branches [1, 8]	ΔSPAD index of leaves ([2]; day 0 after application)	ΔSPAD index of leaves ([2]; day 20 after application)	ΔSPAD index of leaves ([2]; day 40 after application)	ΔSPAD index of leaves ([2]; day 63 after application)	also measured
O=C([O-])C(NCCNC(C(=O)[O-])c1ccccc1[O-])c1ccccc1[O-].[Fe+3] (stereo not drawn) [EDDHA/Fe^3+, reference compound]	36.00	35.69	37.00	37.77	37.82	36.23	37.82	35.15	39.09	37.38	38.91	36.92	0	13.00	17.50	17.25	
O=C([O-])CN(CCN(CC(=O)[O-])Cc1ccccc1[O-])Cc1ccccc1[O-].[Fe+3].[Na+] [HBED/Fe^3+]	35.45	35.69	37.91	35.77	37.27	36.54	37.64	33.69	39.73	39.00	37.27	37.46	0	11.50	16.75	16.23	The SPAD index of the fructifying branches [1, 9]: 36.46; The SPAD index of the non-fructifying branches [1, 9]: 34.39; The SPAD index of the fructifying branches [1, 10]: 37.82; The SPAD index of the non-fructifying branches [1, 10]: 36.46; The SPAD index of the fructifying branches [1, 11]: 37.09; The SPAD index of the non-fructifying branches [1, 11]: 34.46; The SPAD index of the fructifying branches [1, 12]: 36.54; The SPAD index of the non-fructifying branches [1, 12]: 34.69; The SPAD index of the fructifying branches [1, 13]: 38.64; The SPAD index of the non-fructifying branches [1, 13]: 37.46; The SPAD index of the fructifying branches [1, 14]: 37.36; The SPAD index of the non-fructifying branches [1, 14]: 36.54; SPAD index values compared with EDDHA/Fe3+ ([1]; fructifying and non-fructifying branches, Tables 3 and 4): comparable; Effect on symptoms of chlorosis ([1]; testing field No. 1): effectively reduces the symptoms of chlorosis; ΔSPAD index compared with EDDHA/Fe3+ ([2]; Table 5): does not show any significant differences; Use against iron deficiencies ([2]; soils of alkaline pH and high concentration of calcium ions): may be successfully used against iron deficiencies
